# Assay results from EP0376518B1, “Phospholipid nucleosides” (ELI LILLY AND COMPANY, priority 1988, dated 1990).
# Experiments:
# Assay type in all cases: in vivo
# M-5 ovarian carcinoma [1] = test: Test 1: M-5 ovarian carcinoma in mice, single dose; settings: single dose two days after inoculation; for Toxicity (number of animals which exhibited signs of toxicity): group of 10 mice; for Inhibition (percent inhibition of tumor growth): tumors measured 13 days after inoculation
# Text: (§1) Representative compounds of the invention have been tested using murine tumors in female mice to determine their antineoplastic efficacy. Several different tumor systems have been used in these tests, and the compounds have been administered on a number of different dosage schedules. In general, all the tests were started by inoculating female mice with the tumor, subcutaneously. After some number of days delay, intraperitoneal administration of the test compound was begun. Each treatment group consisted of 10 mice, and untreated control groups were included in all experiments. At the completion of the treatment period, the tumors of the control and the treated mice were measured and the mass of them calculated from the measurements. The data are reported here as percent inhibition of tumor growth, based on the tumors of the untreated control mice.
# The tumor in this test was M-5 ovarian carcinoma; the compounds were administered as a single dose, two days after inoculation, and the tumors were measured 13 days after inoculation.
# M-5 ovarian carcinoma [2] = test: Test 2: M-5 ovarian carcinoma in mice, three doses; settings: for Toxicity (number of animals which exhibited signs of toxicity): group of 10 mice; for Inhibition (percent inhibition of tumor growth): tumors measured day 15
# Text: as §1
# The compound of Example 2 was tested against M-5 ovarian carcinoma. Three doses were administered on days 5, 10 and 13 after inoculation, and the tumors were measured on day 15.
# M-5 ovarian carcinoma [3] = test: Test 3: M-5 ovarian carcinoma in mice, daily dose; settings: for Toxicity (number of animals which exhibited signs of toxicity): group of 10 mice; for Inhibition (percent inhibition of tumor growth): tumors measured day 15
# Text: as §1
# The compound of Example 2 was tested against M-5 ovarian carcinoma, giving a daily dose from day 5 to day 14 after inoculation. The tumors were measured on day 15.
# 6C3HED lymphosarcoma = test: Test 4: 6C3HED lymphosarcoma in mice; settings: for Toxicity (number of animals which exhibited signs of toxicity): group of 10 mice; for Inhibition (percent inhibition of tumor growth): tumors measured day 10
# Text: as §1
# The compound of Example 2 was tested against 6C3HED lymphosarcoma, giving a dose on days 1, 5 and 9 after inoculation, and measuring the tumors on day 10.
# colon carcinoma 26 = test: Test 5: colon carcinoma 26 in mice; settings: for Toxicity (number of animals which exhibited signs of toxicity): group of 10 mice; for Inhibition (percent inhibition of tumor growth): tumors measured day 13
# Text: as §1
# The compound of Example 2 was tested against colon carcinoma 26, giving doses on days 3, 8 and 11 after inoculation, and measuring the tumors on day 13.
# [4] = tested on: X-5563 plasma cell myeloma; test: Test 6: X-5563 plasma cell myeloma in mice; settings: for Toxicity (number of animals which exhibited signs of toxicity): group of 10 mice; for Inhibition (percent inhibition of tumor growth): tumors measured day 11
# Text: as §1
# The compound of Example 2 was tested against X-5563 plasma cell myeloma, giving doses on days 1, 5 and 9 after inoculation and measuring the tumors on day 11.
# [5] = tested on: C3H mammary adenocarcinoma; test: Test 7: C3H mammary adenocarcinoma in mice; settings: for Toxicity (number of animals which exhibited signs of toxicity): group of 10 mice; for Inhibition (percent inhibition of tumor growth): tumors measured day 11
# Text: as §1
# The compound of Example 2 was tested against C3H mammary adenocarcinoma, giving does on days 1, 5 and 9 after inoculation and measuring the tumors on day 11.
# Madison lung carcinoma = test: Test 8: Madison lung carcinoma in mice; settings: for Toxicity (number of animals which exhibited signs of toxicity): group of 10 mice; for Inhibition (percent inhibition of tumor growth): tumors measured day 11
# Text: as §1
# The compound of Example 2 was tested against Madison lung carcinoma, giving doses on days 1, 5 and 9 after inoculation and measuring the tumors on day 11.
# Lewis lung carcinoma = test: Test 9: Lewis lung carcinoma in mice; settings: for Toxicity (number of animals which exhibited signs of toxicity): group of 10 mice; for Inhibition (percent inhibition of tumor growth): tumors measured day 11
# Text: as §1
# The compound of Example 2 was tested against Lewis lung carcinoma, giving doses on days 1, 5 and 9 after inoculation and measuring the tumors on day 11.
# [6] = 1.8 mg/kg intraperitoneal on days 5, 10 and 13 after inoculation
# [7] = 3.8 mg/kg intraperitoneal on days 5, 10 and 13 after inoculation
# [8] = 7.5 mg/kg intraperitoneal on days 5, 10 and 13 after inoculation
# [9] = 15 mg/kg intraperitoneal on days 5, 10 and 13 after inoculation
# [10] = 30 mg/kg intraperitoneal on days 5, 10 and 13 after inoculation
# [11] = 0.6 mg/kg intraperitoneal daily from day 5 to day 14 after inoculation
# [12] = 1.2 mg/kg intraperitoneal daily from day 5 to day 14 after inoculation
# [13] = 2.5 mg/kg intraperitoneal daily from day 5 to day 14 after inoculation
# [14] = 5 mg/kg intraperitoneal daily from day 5 to day 14 after inoculation
# [15] = 1.8 mg/kg intraperitoneal on days 1, 5 and 9 after inoculation
# [16] = 3.8 mg/kg intraperitoneal on days 1, 5 and 9 after inoculation
# [17] = 7.5 mg/kg intraperitoneal on days 1, 5 and 9 after inoculation
# [18] = 15 mg/kg intraperitoneal on days 1, 5 and 9 after inoculation
# [19] = 30 mg/kg intraperitoneal on days 1, 5 and 9 after inoculation
# [20] = 1.8 mg/kg intraperitoneal on days 3, 8 and 11 after inoculation
# [21] = 3.8 mg/kg intraperitoneal on days 3, 8 and 11 after inoculation
# [22] = 7.5 mg/kg intraperitoneal on days 3, 8 and 11 after inoculation
# [23] = 15 mg/kg intraperitoneal on days 3, 8 and 11 after inoculation
# [24] = 30 mg/kg intraperitoneal on days 3, 8 and 11 after inoculation
smiles,measurement,setting,value
CCCCCCCCCCCCCCCC(=O)OC[C@H](COP(=O)(O)OP(=O)(O)OC[C@H]1O[C@@H](n2ccc(N)nc2=O)C(F)(F)[C@@H]1O)OC(=O)CCCCCCCCCCCCCCC [Example 2],Toxicity (number of animals which exhibited signs of toxicity),M-5 ovarian carcinoma [1]; 25 mg/kg intraperitoneal,0/10
same,Inhibition (percent inhibition of tumor growth),M-5 ovarian carcinoma [1]; 25 mg/kg intraperitoneal,72%
same,Toxicity (number of animals which exhibited signs of toxicity),M-5 ovarian carcinoma [1]; 50 mg/kg intraperitoneal,4/10
same,Inhibition (percent inhibition of tumor growth),M-5 ovarian carcinoma [1]; 50 mg/kg intraperitoneal,87%
same,Toxicity (number of animals which exhibited signs of toxicity),M-5 ovarian carcinoma [2]; [6],0/10
same,Inhibition (percent inhibition of tumor growth),M-5 ovarian carcinoma [2]; [6],22%
same,Toxicity (number of animals which exhibited signs of toxicity),M-5 ovarian carcinoma [2]; [7],0/10
same,Inhibition (percent inhibition of tumor growth),M-5 ovarian carcinoma [2]; [7],55%
same,Toxicity (number of animals which exhibited signs of toxicity),M-5 ovarian carcinoma [2]; [8],0/10
same,Inhibition (percent inhibition of tumor growth),M-5 ovarian carcinoma [2]; [8],61%
same,Toxicity (number of animals which exhibited signs of toxicity),M-5 ovarian carcinoma [2]; [9],0/10
same,Inhibition (percent inhibition of tumor growth),M-5 ovarian carcinoma [2]; [9],92%
same,Toxicity (number of animals which exhibited signs of toxicity),M-5 ovarian carcinoma [2]; [10],2/10
same,Inhibition (percent inhibition of tumor growth),M-5 ovarian carcinoma [2]; [10],99%
same,Toxicity (number of animals which exhibited signs of toxicity),M-5 ovarian carcinoma [3]; [11],0/10
same,Inhibition (percent inhibition of tumor growth),M-5 ovarian carcinoma [3]; [11],42%
same,Toxicity (number of animals which exhibited signs of toxicity),M-5 ovarian carcinoma [3]; [12],0/10
same,Inhibition (percent inhibition of tumor growth),M-5 ovarian carcinoma [3]; [12],58%
same,Toxicity (number of animals which exhibited signs of toxicity),M-5 ovarian carcinoma [3]; [13],0/10
same,Inhibition (percent inhibition of tumor growth),M-5 ovarian carcinoma [3]; [13],69%
same,Toxicity (number of animals which exhibited signs of toxicity),M-5 ovarian carcinoma [3]; [14],0/10
same,Inhibition (percent inhibition of tumor growth),M-5 ovarian carcinoma [3]; [14],100%
same,Toxicity (number of animals which exhibited signs of toxicity),M-5 ovarian carcinoma [3]; 10 mg/kg intraperitoneal daily from day 5 to day 14 after inoculation,10/10
same,Toxicity (number of animals which exhibited signs of toxicity),6C3HED lymphosarcoma; [15],0/10
same,Inhibition (percent inhibition of tumor growth),6C3HED lymphosarcoma; [15],21%
same,Toxicity (number of animals which exhibited signs of toxicity),6C3HED lymphosarcoma; [16],0/10
same,Inhibition (percent inhibition of tumor growth),6C3HED lymphosarcoma; [16],32%
same,Toxicity (number of animals which exhibited signs of toxicity),6C3HED lymphosarcoma; [17],0/10
same,Inhibition (percent inhibition of tumor growth),6C3HED lymphosarcoma; [17],47%
same,Toxicity (number of animals which exhibited signs of toxicity),6C3HED lymphosarcoma; [18],0/10
same,Inhibition (percent inhibition of tumor growth),6C3HED lymphosarcoma; [18],60%
same,Toxicity (number of animals which exhibited signs of toxicity),6C3HED lymphosarcoma; [19],7/10
same,Inhibition (percent inhibition of tumor growth),6C3HED lymphosarcoma; [19],98%
same,Toxicity (number of animals which exhibited signs of toxicity),colon carcinoma 26; [20],0/10
same,Inhibition (percent inhibition of tumor growth),colon carcinoma 26; [20],0%
same,Toxicity (number of animals which exhibited signs of toxicity),colon carcinoma 26; [21],0/10
same,Inhibition (percent inhibition of tumor growth),colon carcinoma 26; [21],21%
same,Toxicity (number of animals which exhibited signs of toxicity),colon carcinoma 26; [22],0/10
same,Inhibition (percent inhibition of tumor growth),colon carcinoma 26; [22],28%
same,Toxicity (number of animals which exhibited signs of toxicity),colon carcinoma 26; [23],0/10
same,Inhibition (percent inhibition of tumor growth),colon carcinoma 26; [23],66%
same,Toxicity (number of animals which exhibited signs of toxicity),colon carcinoma 26; [24],8/10
same,Inhibition (percent inhibition of tumor growth),colon carcinoma 26; [24],89%
same,Toxicity (number of animals which exhibited signs of toxicity),[4]; [15],0/10
same,Inhibition (percent inhibition of tumor growth),[4]; [15],0%
same,Toxicity (number of animals which exhibited signs of toxicity),[4]; [16],0/10
same,Inhibition (percent inhibition of tumor growth),[4]; [16],2%
same,Toxicity (number of animals which exhibited signs of toxicity),[4]; [17],0/10
same,Inhibition (percent inhibition of tumor growth),[4]; [17],68%
same,Toxicity (number of animals which exhibited signs of toxicity),[4]; [18],1/10
same,Inhibition (percent inhibition of tumor growth),[4]; [18],84%
same,Toxicity (number of animals which exhibited signs of toxicity),[4]; [19],9/10
same,Inhibition (percent inhibition of tumor growth),[4]; [19],100%
same,Toxicity (number of animals which exhibited signs of toxicity),[5]; [15],0/10
same,Inhibition (percent inhibition of tumor growth),[5]; [15],0%
same,Toxicity (number of animals which exhibited signs of toxicity),[5]; [16],0/10
same,Inhibition (percent inhibition of tumor growth),[5]; [16],0%
same,Toxicity (number of animals which exhibited signs of toxicity),[5]; [17],0/10
same,Inhibition (percent inhibition of tumor growth),[5]; [17],22%
same,Toxicity (number of animals which exhibited signs of toxicity),[5]; [18],0/10
same,Inhibition (percent inhibition of tumor growth),[5]; [18],60%
same,Toxicity (number of animals which exhibited signs of toxicity),[5]; [19],6/10
same,Inhibition (percent inhibition of tumor growth),[5]; [19],100%
same,Toxicity (number of animals which exhibited signs of toxicity),Madison lung carcinoma; [15],0/10
same,Inhibition (percent inhibition of tumor growth),Madison lung carcinoma; [15],12%
same,Toxicity (number of animals which exhibited signs of toxicity),Madison lung carcinoma; [16],0/10
same,Inhibition (percent inhibition of tumor growth),Madison lung carcinoma; [16],18%
same,Toxicity (number of animals which exhibited signs of toxicity),Madison lung carcinoma; [17],0/10
same,Inhibition (percent inhibition of tumor growth),Madison lung carcinoma; [17],33%
same,Toxicity (number of animals which exhibited signs of toxicity),Madison lung carcinoma; [18],0/10
same,Inhibition (percent inhibition of tumor growth),Madison lung carcinoma; [18],68%
same,Toxicity (number of animals which exhibited signs of toxicity),Madison lung carcinoma; [19],4/10
same,Inhibition (percent inhibition of tumor growth),Madison lung carcinoma; [19],76%
same,Toxicity (number of animals which exhibited signs of toxicity),Lewis lung carcinoma; [15],0/10
same,Inhibition (percent inhibition of tumor growth),Lewis lung carcinoma; [15],6%
same,Toxicity (number of animals which exhibited signs of toxicity),Lewis lung carcinoma; [16],0/10
same,Inhibition (percent inhibition of tumor growth),Lewis lung carcinoma; [16],0%
same,Toxicity (number of animals which exhibited signs of toxicity),Lewis lung carcinoma; [17],0/10
same,Inhibition (percent inhibition of tumor growth),Lewis lung carcinoma; [17],0%
same,Toxicity (number of animals which exhibited signs of toxicity),Lewis lung carcinoma; [18],0/10
same,Inhibition (percent inhibition of tumor growth),Lewis lung carcinoma; [18],0%
same,Toxicity (number of animals which exhibited signs of toxicity),Lewis lung carcinoma; [19],4/10
same,Inhibition (percent inhibition of tumor growth),Lewis lung carcinoma; [19],41%
"CCCCCCCCCCCCCCCCCCC(COP(=O)(O)OP(=O)(O)OC[C@H]1O[C@@H](n2ccc(N)nc2=O)C(F)(F)[C@@H]1O)OCC (stereo partly drawn) [Example 3, 2′-Deoxy-2′,2′-difluorocytidine, 5′-(dihydrogen diphosphate), P′-(2-ethoxyeicosyl) ester]",Toxicity (number of animals which exhibited signs of toxicity),M-5 ovarian carcinoma [1]; 50 mg/kg intraperitoneal,0/10
same,Inhibition (percent inhibition of tumor growth),M-5 ovarian carcinoma [1]; 50 mg/kg intraperitoneal,53%
same,Toxicity (number of animals which exhibited signs of toxicity),M-5 ovarian carcinoma [1]; 100 mg/kg intraperitoneal,0/10
same,Inhibition (percent inhibition of tumor growth),M-5 ovarian carcinoma [1]; 100 mg/kg intraperitoneal,64%
